Measurements as given in ChEMBL document CHEMBL3886176, “TSH receptor antagonizing tetrahydroquinoline compounds” (2015).
pIC50: −log10 of the molar value.

Molecular target: Thyrotropin receptor (Homo sapiens, UniProt P16473)
Format: functional, cell-based, CHO

Thyrotropin receptor, sequence (P16473 whole entry): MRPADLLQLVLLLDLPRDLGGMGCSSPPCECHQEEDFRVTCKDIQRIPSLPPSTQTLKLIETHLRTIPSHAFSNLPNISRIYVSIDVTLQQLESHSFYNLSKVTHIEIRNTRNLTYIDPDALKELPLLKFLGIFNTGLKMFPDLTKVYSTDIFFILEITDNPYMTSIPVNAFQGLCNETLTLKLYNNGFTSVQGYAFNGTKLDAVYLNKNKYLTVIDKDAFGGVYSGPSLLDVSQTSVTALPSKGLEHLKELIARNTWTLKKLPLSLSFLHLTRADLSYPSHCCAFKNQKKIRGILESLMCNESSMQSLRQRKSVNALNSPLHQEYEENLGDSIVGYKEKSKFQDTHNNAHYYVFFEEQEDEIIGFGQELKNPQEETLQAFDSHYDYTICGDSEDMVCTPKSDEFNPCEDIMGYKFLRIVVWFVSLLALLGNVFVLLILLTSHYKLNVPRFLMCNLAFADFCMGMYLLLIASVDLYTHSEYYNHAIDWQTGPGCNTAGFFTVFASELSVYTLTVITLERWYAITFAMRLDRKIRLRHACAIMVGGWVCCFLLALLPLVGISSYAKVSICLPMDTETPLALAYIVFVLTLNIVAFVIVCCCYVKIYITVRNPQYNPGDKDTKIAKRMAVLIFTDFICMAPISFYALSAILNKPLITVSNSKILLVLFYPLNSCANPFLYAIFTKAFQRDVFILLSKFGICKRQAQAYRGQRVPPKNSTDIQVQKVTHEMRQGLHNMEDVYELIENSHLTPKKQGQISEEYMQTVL

## CC(=O)N1CCC(C)(c2ccccc2)c2cc(NC(=O)c3ccc(Br)s3)ccc21 (stereo unspecified)
  pIC50: > 7.00
